Source: publication PMC8145938, “Triphenilphosphonium Analogs of Chloramphenicol as Dual-Acting Antimicrobial and Antiproliferating Agents” (Antibiotics, 2021)
Values after ≈ are worked out from the molar mass of the structure shown. Where two headings read alike, the source gives them in different places.

Columns and labels:
[1] = system: E. coli S30 extract cell-free transcription-translation system; test: inhibition of firefly luciferase synthesis in cell-free bacterial translation system; assay type: biochemical; conditions: 30 µM compound
Experimental: The next step was to test the new CAM-Cn-TPP compounds for their ability to inhibit the synthesis of the firefly luciferase reporter in vitro in a cell-free transcription-translation system based on an E. coli S30 extract.
The inhibition of firefly luciferase synthesis in cell-free translation systems by CAM-Cn-TPP was tested with an E. coli S30 Extract System for Linear Templates (Promega, Madison, […], USA). The reactions were programmed with 100 ng of mRNA and were carried out in 5 μL aliquots at 37 °C for 30 min. The activity of in vitro synthesized luciferase was assessed using 5 μL of the substrate from the Steady-Glo Luciferase Assay System (Promega).

A549 = test: MTT assay growth inhibition; assay type: cell-based, human; conditions: for selectivity of action for A549 and noncancerous VA13 cell lines: A549 vs VA13; for GI50: Homo sapiens, A549, MTT, 72 h, read-out: 50% growth inhibition concentration (GI50)
Experimental: The cytotoxicity of the tested substances was tested using the MTT (3-(4,5-dimethylthiazol-2-yl)-2,5-diphenyltetrazolium bromide) assay, with some modifications, and 2500 cells per well for the MCF7, HEK293T, and A549 cell lines or 4000 cells per well for the VA-13 cell line were plated in 135 µL of DMEM-F12 media (Gibco, Waltham, MA, USA) in a 96-well plate and incubated in the 5% CO2 incubator for first 16 h, without treatment. Then, 15 µL of media-DMSO solutions of the tested substances was added to the cells (the final DMSO concentrations in the media were 1% or less) and treated cells for 72 h with 25 nM–50 µM (eight dilutions) of our substances (triplicate each), and serial DMSO dilutions and doxorubicin were used as controls. The MTT reagent (Paneco LLC, Moscow, Russia) was then added to cells to a final concentration of 0.5 g/L (10× stock solution in PBS was used) and incubated for 2.5 h at 37 °C in the incubator under an atmosphere of 5% CO2. The MTT solution was then discarded, and 140 µL of DMSO (PharmaMed LLC, Krasnodarsky Krai, Russia) was added. The plates were swayed on a shaker (60 rpm) to dissolve the formazan. The absorbance was measured using a microplate reader (VICTOR X5 Light Plate Reader, PerkinElmer, Waltham, MA, USA) at a wavelength of 565 nm (in order to measure formazan concentration). The results were used to construct a dose-response graph and to estimate the CC50 value.

E. coli 70S ribosomes = test: competition-binding assay with BODIPY-ERY (fluorescence anisotropy); conditions: for Kd: displacement of BODIPY-ERY from E. coli 70S ribosomes, read-out: apparent dissociation constant (KDapp)
From the text: All new semi-synthetic CAM-Cn-TPP compounds were expected to bind and act on bacterial ribosomes by inhibiting protein synthesis, which is similar to CAM-C4-TPP and the PTC-targeting parent antibiotic CHL. To assess the affinity of CAM-C10-TPP and CAM-C14-TPP for the bacterial 70S ribosome (Figure 2A), a competition-binding assay exploiting BODIPY-labeled erythromycin (BODIPY-ERY) was used. […] It is likely that in the case of CAM-C14-TPP, the linker may be too long, preventing the optimal positioning of the TPP moiety in the NPET. Thus, CAM-C10-TPP and CAM-C14-TPP bind to the bacterial ribosome. However, their affinity strongly depends on the length of the linker connecting the two […]. Among the three CAM-Cn-TPPs, the C10-linker was optimal in terms of its ability to bind to the 70S ribosome.
The binding affinity of CAM-Cn-TPP to E. coli ribosomes was analyzed by a competition-binding assay using the fluorescently-labeled BODIPY-ERY, as described before. BODIPY-Ery (16 nM) was incubated with the ribosomes (50 nM) in the buffer containing 20 mM HEPES-KOH (pH 7.5), 50 mM NH4Cl, 10 mM Mg(CH3COO)2, 4 mM mercaptoethanol, and 0.05% Tween-20 for 30 min at 25 °C. Solutions of CHL, CAM-Cn-TPP, and CnTPP in different concentration ranges were added to the formed complex. The mixture was incubated for 2 h, until an equilibrium was reached, and the values of fluorescence anisotropy were measured by VICTOR X5 Multilabel Plate Reader (Perkin Elmer, Waltham, MA, USA). The dissociation constants were calculated based on the assumption of the equilibrium competitive binding of two ligands at a single binding site, as described in [70].

Mycobacterium smegmatis = test: MIC determination, broth microdilution; assay type: cell-based; conditions: Mycolicibacterium smegmatis
From the text: (§1) Standard laboratory strains of Bacillus subtilis subs. subtilis Cohn 1872, stains BR151, and 168, Staphylococcus aureus subsp. aureus Rosenbach 1884 strains JCM 2151 and entry MC#144 (from the Microorganisms Collection of the Moscow State University), Listeria monocytogenes Pirie 1940, Mycobacterium smegmatis Lehmann and Neumann 1899 (MC#377), and Escherichia coli Castellani and Chalmers 1919, strain JW5503 (with the deletion of tolC gene), which are resistant to the chloramphenicol strains, J53rif, C600rif/pIB55-1, C600rif/pIP162-1, and C600recA naI, were used.
(§2) The MICs for CAM-Cn-TPP and Cn-TPP were determined by Mueller-Hinton broth microdilution, as recommended by CLSI in the Methods for Dilution Antimicrobial Susceptibility Tests for Bacteria that Grow Aerobically, Approved Standard, 9th ed., CLSI document M07-A9, using in-house-prepared panels. The compounds were diluted in a 96-well microtiter plate to final concentrations ranging from 0.5 to 360 μM in a 250-µL aliquot of the bacterial suspension, followed by incubation at 37 °C or 30 °C for 18 h. […] The bacterial growth was observed visually alongside OD measurements. The experiments were carried out in triplicate.

Bacillus subtilis = test: MIC determination, broth microdilution; assay type: cell-based
From the text: as §1, §2

B. subtilis pHT01-cfr = test: MIC determination, broth microdilution; assay type: cell-based; conditions: Bacillus subtilis, PHT01CFR
Experimental: (§3) E. coli ∆tolC CHL-resistant strain harboring plasmid encoding for chloramphenicol acetyltransferase (cat) (pCA24N-LacZ) and the control E. coli ∆tolC strain was used to evaluate the inhibitory effect of the compounds. CHL-resistant strains of B. subtilis pHT01-cat and B. subtilis pHT01-cfr were prepared by means of a transformation of a B. subtilis 168 strain with plasmids harboring the cat and cfr genes (chloramphenicol-florfenicol resistance) gene. The cfr gene encodes for the methyltransferase, which catalyzes the methylation of […] in the 23S rRNA and causes resistance to a variety of ribosome-targeting antibiotics that bind in the A site of the bacterial ribosome.
(§4) A standard laboratory strain of B. subtilis 168 was used to obtain the CHL-resistant strains, B. subtilis pHT01-CAT and B. subtilis pHT01-cfr, by means of transformation with the corresponding plasmids. Competent cell preparation and transformation procedures were conducted, as reported in [74, 75]. The desired colonies were selected at 10 µg/mL of CHL for B. subtilis pHT01 and 5 µg/mL or 3.2 µg/mL of CHL for B. subtilis pHT01-cfr.
as §2

B. subtilis pHT01-cat = test: MIC determination, broth microdilution; assay type: cell-based; conditions: Bacillus subtilis, PHT01CAT
Experimental: as §3, §4, §2

[2] = Table 1, double-dilution method, read-out: MIC

| Structure (SMILES) | inhibition of bacterial translation (luciferase synthesis) [1] | selectivity of action for A549 and noncancerous VA13 cell lines (A549) | GI50 (A549) [nM] | Kd (E. coli 70S ribosomes) [nM] | greater affinity to the ribosome compared to CAM-C4-TPP (E. coli 70S ribosomes; ratio of KDapp) | greater affinity to the ribosome compared to the parent CHL (E. coli 70S ribosomes; ratio of KDapp) | MIC (Mycobacterium smegmatis) [µM] | MIC (Bacillus subtilis) [µM] | MIC (B. subtilis pHT01-cfr) [µM] | MIC (B. subtilis pHT01-cat) [µM] | lower affinity to the 70S ribosome compared to CHL (E. coli 70S ribosomes; ratio of KDapp) | lower affinity to the 70S ribosome compared to other CAM-Cn-TPPs (E. coli 70S ribosomes; ratio of KDapp) | MIC (Mycobacterium smegmatis; [2]) [µM] | MIC (Bacillus subtilis; [2]) [µM] |
| --- | --- | --- | --- | --- | --- | --- | --- | --- | --- | --- | --- | --- | --- | --- |
| O=C(CCCCCCCCCC[P+](c1ccccc1)(c1ccccc1)c1ccccc1)N[C@H](CO)[C@H](O)c1ccc([N+](=O)[O-])cc1 [CAM-C10-TPP, (N-{[(1R,2R)-1,3-dihydroxy-1-(4-nitrophenyl)propan-2-yl]amino}-11-oxoundecyl)(triphenyl)phosphonium bromide] | inhibits bacterial translation | approximately 4 times | 700 ± 100 | 400 ± 40 | ~ 1.5 fold | ~ 7 fold | 2 | 2 | 6 | 6 |  |  |  |  |
| O=C(CCCCCCCCCC[P+](c1ccccc1)(c1ccccc1)c1ccccc1)NCCCC(=O)N[C@H](CO)[C@H](O)c1ccc([N+](=O)[O-])cc1 [CAM-C14-TPP, N-[(1R,2R)-1,3-dihydroxy-1-(4-nitrophenyl)propan-2-yl]-4-(triphenyl)phosphoniumundecanamidobutamide bromide] | inhibits bacterial translation | ~2 times | 2900 ± 400 | 36000 ± 9000 |  |  | 8 | 12 | 6 | 12.5 | ~ 13 fold | 60-90 fold |  |  |
| O=C(N[C@H](CO)[C@H](O)c1ccc([N+](=O)[O-])cc1)C(Cl)Cl [CHL, chloramphenicol] | inhibits bacterial translation |  | > 50000 | 2800 ± 400 |  |  |  |  | 90 (≈ 29.1 µg/mL) | 180 (≈ 58.2 µg/mL) |  |  | 6 (≈ 1.94 µg/mL) | 12 (≈ 3.88 µg/mL) |
